Common to all, as to type: cell-based
The test system of assay [1] is general bacterium on the surface of beef. Briefly: Number of bacterium on the surface of beef treated with bactericide. As to conditions: 5 minutes immersion, preserved at 4° C. As to the method: 50 ml of each of bactericides was charged in a vessel, and then 15 g of beef (block) was immersed in the bactericide, and allowed to stand at room temperature (surface sterilization). After 5 minutes, the bactericide was removed, and only the beef was preserved in the vessel at 4° C. After certain period ((1) after one day, (2) after three days, (3) after six days), 25 ml of physiological saline was added to the vessel containing the beef, and shaked. The number of the bacterium cells liberated from the beef into the physiological saline was counted. It was confirmed according to preliminary experiments that the number of the bacterium cells per one gram of the beef existing on the surface of the beef before sterilization treatment was 10 or less. Sterilized water and sodium hypochlorite were also examined.

In assay [2] the test system is Salmonella enteritidis. The assay is described as follows: Test of bactericidal power of bactericides after treating beef (block). The note with it: 5 min. Here is the method:
(§1) 100 ml of each of bactericides shown in Table 25 was charged into a vessel. 21 g of beef (block) was immersed in the bactericide, and allowed to stand at room temperature. After 24 hours, the beef was removed, and general bacterium (bacterium liberated from the beef) present in the bactericide were removed using a sterilized filter. 30 μl of bacteria suspension of Staphylococcus aureus or Salmonella enteritidis was added to 2 ml of the bactericide after used for the treatment of the beef. After five minutes, the number of bacterium in the bactericide was counted. As for 0.01% sodium hypochlorite, a similar test was conducted, and the results were compared.

Assay [3] concerns Staphylococcus aureus. The assay is described as above. As to conditions: 5 min. Here is the method: as §1
The subject of assay [4] is Staphylococcus aureus IF012732. Briefly: Test of bactericidal power of bactericides mixed with meat (beef) extract. As to the method:
(§2) It was evaluated whether bactericidal power was lowered when the bactericides shown in Table 20 were mixed with beef extract (Wako Junyaku) according to the following method. For comparison, sodium hypochlorite was also evaluated. Strains used herein were Staphylococcus aureus IF012732 and Salmonella enteritidis IF003313.
(§3) One ml of each of bactericides shown in Table 20 and one ml of 5% beef extract (dissolved in sterilized water) were mixed at a ratio of one to one, and allowed to stand at a room temperature. After 10 minutes, 10 μl of bacteria suspension previously prepared was added to each of the bactericides and the mixture, and allowed to stand after stirred. Change of number of bacteria in the mixture solution was determined (one minute, five minutes and 10 minutes after addition of bacteria). According to previous experiments, it was confirmed that general viable count was 10 or less per one ml of 5% beef extract. As shown in Table 21 and Table 22, when 0.02% of sodium hypochlorite was mixed with a beef extract, bactericidal power thereof was lowered.
The bactericides shown in Table 23 were examined for bactericidal power in a similar manner to that of Test Example 7.

Assay [5] has as its system Salmonella enteritidis IF003313. The assay is described as above. As to the method:
as §2, §3

For assay [6], the system named is Trichophyton mentagrphytes. The assay is described as follows: Test of activity against Trichophyton mentagrphytes (paper disk, block circle). The note with it: 8 mm paper disk with 25 μl, dried 24 hours; cultured at 28° C. for five days. Here is the method:
A paper disk having a diameter of 8 mm that was previously subjected to dry heat sterilization, was impregnated with 25 μl of each of fungicides shown in Table 8 and allowed to stand for 24 hours to be dried. The paper disk was put on agar medium on which spore suspension of Trichophyton […] previously prepared was spread, and cultured at 28° C. for five days. […] No block circle was formed when a fungicide containing only chitosan (Comparative Example 4) was used.

In assay [7] the test system is Salmonella enteritidis. The assay is described as follows: Test of persistency of bactericidal power on stainless steel. Here is the method: (§4) Each of bactericide shown in Table 8 was sprayed on a sterilized stainless steel plate (15 μl/cm^2), and allowed to stand for seven days in a sterilized room to be dried. Each of the bacteria suspension previously cultured in a similar manner to that described above was diluted with physiological saline. Then, 10 μl of the diluted suspension was spread on the stainless steel. After allowed to stand for 10 minutes, bacterium on the stainless steel were wiped with absorbent cotton, and liberated into physiological saline. Then, visible count was counted. For comparison, 70% ethanol was used as a conventional bactericide. Strong bactericidal power of each bactericide of examples containing both eucalyptus extract and chitosan was maintained, even after elapse of seven days, on the stainless steel on which it was spread. The bactericidal power was stronger than that of bactericides containing only eucalyptus extract (Comparative Examples 1 to 3) or a bactericide containing only chitosan (Comparative Example 4).
(§5) Persistency of bactericidal power of the bactericides shown in Table 16 was evaluated in a similar manner to that of Test Example 3 (allowed to stand for one month). After elapse of one month from spraying of the bactericide, bactericidal power of the bactericide containing glycerol fatty acid ester in addition to eucalyptus extract and chitosan (Example 4) was stronger than that of bactericides containing no glycerol fatty acid ester (Comparative Example 5).

The subject of another assay is Bacillus subtilis. Described as above. As to the method: as §4, §5
The test system of another assay is Escherichia coli. The description is as above. As to the method: as §4, §5
In another assay the test system is MRSA. The description is as above. As to the method:
as §4, §5

Assay [8] has as its system Staphylococcus aureus. The description is as above. Here is the method:
as §4, §5

The mark [9] stands for this setting: treatment of beef done (24 hours).
Setting [10] is: mixing treatment of beef extract and bactericide (10 min) done, 1 min.
Where [11] appears, read: mixing treatment of beef extract and bactericide (10 min) done, 5 min.
Where [12] appears, read: mixing treatment of beef extract and bactericide (10 min) done, 10 min.
Where [13] appears, read: mixing treatment with beef extract none, 1 min.
Setting [14] is: mixing treatment with beef extract none, 5 min.
[15] abbreviates: mixing treatment with beef extract none, 10 min.

`OCl` [0.01% Sodium hypochlorite, sodium hypochlorite]: the “Number of general bacterium” value in assay [1] (After 3 days) is given as 1.4 × 10^5 Number/g; in assay [1] (After 6 days) it was 3.4 × 10^7 Number/g; in assay [1] (After one day) it was 6.7 × 10^2 Number/g. Further, the Viable count in the assay on Salmonella enteritidis [2] (setting [9]) is given as 1.5 × 10^5 Number/ml; with Salmonella enteritidis [2] (treatment of beef none), under 1000 Number/ml; in the assay on Staphylococcus aureus [3] (setting [9]), 1.8 × 10^5 Number/ml; in the assay with Staphylococcus aureus [3] (treatment of beef none), under 1000 Number/ml.

Regarding `[Na+].[O-]Cl` [0.02% Sodium hypochloryte, sodium hypochlorite], the Viable count is on record as 6.5 × 10^6 Number/ml in [4] (setting [10]); 6.5 × 10^6 Number/ml in [4] (setting [11]); 6.4 × 10^6 Number/ml in assay [4] (setting [12]); under 200 Number/ml in assay [4] (setting [13]); under 200 Number/ml in [4] (setting [14]); under 200 Number/ml in assay [4] (setting [15]). For the same molecule, the Viable count in assay [5] (setting [10]) was 4.5 × 10^5 Number/ml; in assay [5] (setting [11]), 4.3 × 10^5 Number/ml; in assay [5] (setting [12]), 4.3 × 10^5 Number/ml; in [5] (setting [13]) it was under 200 Number/ml; in [5] (setting [14]) it was under 200 Number/ml; in [5] (setting [15]), under 200 Number/ml.

`CCO` [70% Ethanol, Ethanol]: the “Diameter of block circle” value in assay [6] is “None”. Moreover, the “Viable count (After 7 days)” value in the assay with Salmonella enteritidis [7] is given as 4.5 × 10^6 Number/100 cm^2; with Bacillus subtilis, 3.0 × 10^6 Number/100 cm^2; in the assay on Escherichia coli, 2.2 × 10^6 Number/100 cm^2; in the assay with MRSA, 1.2 × 10^6 Number/100 cm^2; in the assay on Staphylococcus aureus [8], 3.5 × 10^6 Number/100 cm^2.

The values above are taken from patent US6352727B1, “Bactericides” (Oji Paper Co., Ltd., priority 1998, dated 2002).
